Structures are written as SMILES. In brackets after ≈: the same amount, converted by molar mass.

In the first assay the target is Protein farnesyltransferase (Homo sapiens, UniProt P49354+P49356). Nature of the assay: Inhibition of [3H]farnesyl pyrophosphate binding to human farnesyltransferase. The class given is protein-complex assay.
`CN(C)c1cc(CNCCS)nc(CNCCS)c1` yielded an IC50 of 0.62 mM.
On the same count and under the same terms, under `c1ccc(-c2ccccn2)nc1` stands 100 mM.
Still for that read-out and setting: with `NCCN` [ETHYLENEDIAMINE] the figure was 15.5 mM.
The same measure, in the same setting: under `CCCC[C@@H](C)/C=C(C)/C=C(\C)C(=O)NC1=C[C@@](O)(/C=C/C=C/C=C/C(=O)NC2=C(O)CCC2=O)[C@@H]2O[C@@H]2C1=O` [MANUMYCIN A] stands 0.0119 mM; under `c1cnc2c(c1)ccc1cccnc12` [PHENANTHROLINE], 4 mM.

Test system in a further assay: not listed separately
Nature of the assay: Inhibitory activity against K-rasNRK cells. The class given is functional, cell-based, Rattus norvegicus.
With `SCCNCc1cc(-c2cccc3ccccc23)cc(CNCCS)n1`, the IC50 stood at 0.32 µg/mL (≈ 0.834 µM).

The term IC50 denotes the midpoint of a concentration-inhibition curve. A higher IC50 goes with lower potency.

These data come from ChEMBL document CHEMBL1136425, “A novel metal-chelating inhibitor of protein farnesyltransferase” (Bioorg Med Chem Lett, 2003).
